Results reported in ChEMBL document CHEMBL1201862, “PubChem BioAssay data set” (2004).
Blank lines part the entries; values can stand above or below the molecule they belong to. The source made the active and inactive calls. Cut-off read from the data, not from the text of the source, for most assays here: actives have a measured IC50 and inactives only a lower limit.

Key:
[1] = biological target: T1, Sentrin-specific protease 8 (Homo sapiens, UniProt Q96LD8); assay: SENP8 protease inhibitors, SAR follow-up, biochemical, luminescence, set 2 (AID 588601); assay type: functional
T1 sequence (Q96LD8 whole entry): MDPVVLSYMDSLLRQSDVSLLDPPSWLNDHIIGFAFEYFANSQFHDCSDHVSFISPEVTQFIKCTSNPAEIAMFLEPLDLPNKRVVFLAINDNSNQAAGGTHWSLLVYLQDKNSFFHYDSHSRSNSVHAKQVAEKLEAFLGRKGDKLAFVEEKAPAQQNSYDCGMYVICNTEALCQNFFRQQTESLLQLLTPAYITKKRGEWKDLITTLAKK

Caspase-3 [2] = biological target: T2, Caspase-3 (Homo sapiens, UniProt P42574); assay: caspase-3 inhibitors as off-family protease, SAR follow-up, selectivity assay for SENP protease inhibitor project, biochemical, luminescence, set 2 (AID 588599); assay type: functional
T2 sequence (P42574 whole entry): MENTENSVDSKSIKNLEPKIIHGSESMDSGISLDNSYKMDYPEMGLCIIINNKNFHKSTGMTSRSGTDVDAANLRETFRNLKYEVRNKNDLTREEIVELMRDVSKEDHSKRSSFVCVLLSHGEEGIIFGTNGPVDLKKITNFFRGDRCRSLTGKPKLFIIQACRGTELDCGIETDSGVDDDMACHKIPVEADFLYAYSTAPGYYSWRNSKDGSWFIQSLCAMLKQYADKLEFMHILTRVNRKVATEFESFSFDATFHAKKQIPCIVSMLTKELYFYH

[3] = biological target: T3, Sentrin-specific protease 7 (Homo sapiens, UniProt Q9BQF6); assay: SENP7 protease inhibitors, SAR follow-up, biochemical, luminescence, set 2 (AID 588600); assay type: functional
T3 sequence (Q9BQF6 whole entry): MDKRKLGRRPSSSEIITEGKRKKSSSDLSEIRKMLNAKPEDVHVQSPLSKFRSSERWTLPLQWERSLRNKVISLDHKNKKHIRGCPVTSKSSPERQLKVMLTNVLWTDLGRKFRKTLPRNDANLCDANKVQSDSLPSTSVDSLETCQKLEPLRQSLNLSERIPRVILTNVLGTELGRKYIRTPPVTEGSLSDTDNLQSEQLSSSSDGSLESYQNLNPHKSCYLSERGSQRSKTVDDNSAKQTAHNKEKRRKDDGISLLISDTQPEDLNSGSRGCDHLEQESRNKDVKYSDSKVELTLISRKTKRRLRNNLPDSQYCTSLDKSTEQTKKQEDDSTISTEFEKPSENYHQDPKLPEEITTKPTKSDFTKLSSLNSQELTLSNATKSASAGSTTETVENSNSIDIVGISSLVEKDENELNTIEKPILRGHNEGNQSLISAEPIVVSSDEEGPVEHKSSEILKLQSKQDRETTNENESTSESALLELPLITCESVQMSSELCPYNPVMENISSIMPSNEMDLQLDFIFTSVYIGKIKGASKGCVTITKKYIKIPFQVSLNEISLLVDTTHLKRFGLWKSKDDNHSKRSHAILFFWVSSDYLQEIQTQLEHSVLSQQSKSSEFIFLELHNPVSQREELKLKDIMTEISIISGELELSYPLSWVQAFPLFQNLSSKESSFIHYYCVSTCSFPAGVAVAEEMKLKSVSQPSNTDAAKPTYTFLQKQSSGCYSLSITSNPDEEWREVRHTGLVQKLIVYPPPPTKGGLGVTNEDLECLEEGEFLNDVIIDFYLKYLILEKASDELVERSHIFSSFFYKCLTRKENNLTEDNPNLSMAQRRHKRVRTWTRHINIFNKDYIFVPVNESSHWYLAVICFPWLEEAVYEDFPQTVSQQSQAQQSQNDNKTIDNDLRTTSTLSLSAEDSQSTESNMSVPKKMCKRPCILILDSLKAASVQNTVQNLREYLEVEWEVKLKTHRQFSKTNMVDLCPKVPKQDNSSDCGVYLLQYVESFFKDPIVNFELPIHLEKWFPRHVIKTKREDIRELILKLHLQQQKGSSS

[4] = biological target: T4, Sentrin-specific protease 6 (Homo sapiens, UniProt Q9GZR1); assay: SENP6 protease inhibitors, SAR follow-up, biochemical, luminescence, set 2 (AID 588598); assay type: functional
T4 sequence (Q9GZR1 whole entry): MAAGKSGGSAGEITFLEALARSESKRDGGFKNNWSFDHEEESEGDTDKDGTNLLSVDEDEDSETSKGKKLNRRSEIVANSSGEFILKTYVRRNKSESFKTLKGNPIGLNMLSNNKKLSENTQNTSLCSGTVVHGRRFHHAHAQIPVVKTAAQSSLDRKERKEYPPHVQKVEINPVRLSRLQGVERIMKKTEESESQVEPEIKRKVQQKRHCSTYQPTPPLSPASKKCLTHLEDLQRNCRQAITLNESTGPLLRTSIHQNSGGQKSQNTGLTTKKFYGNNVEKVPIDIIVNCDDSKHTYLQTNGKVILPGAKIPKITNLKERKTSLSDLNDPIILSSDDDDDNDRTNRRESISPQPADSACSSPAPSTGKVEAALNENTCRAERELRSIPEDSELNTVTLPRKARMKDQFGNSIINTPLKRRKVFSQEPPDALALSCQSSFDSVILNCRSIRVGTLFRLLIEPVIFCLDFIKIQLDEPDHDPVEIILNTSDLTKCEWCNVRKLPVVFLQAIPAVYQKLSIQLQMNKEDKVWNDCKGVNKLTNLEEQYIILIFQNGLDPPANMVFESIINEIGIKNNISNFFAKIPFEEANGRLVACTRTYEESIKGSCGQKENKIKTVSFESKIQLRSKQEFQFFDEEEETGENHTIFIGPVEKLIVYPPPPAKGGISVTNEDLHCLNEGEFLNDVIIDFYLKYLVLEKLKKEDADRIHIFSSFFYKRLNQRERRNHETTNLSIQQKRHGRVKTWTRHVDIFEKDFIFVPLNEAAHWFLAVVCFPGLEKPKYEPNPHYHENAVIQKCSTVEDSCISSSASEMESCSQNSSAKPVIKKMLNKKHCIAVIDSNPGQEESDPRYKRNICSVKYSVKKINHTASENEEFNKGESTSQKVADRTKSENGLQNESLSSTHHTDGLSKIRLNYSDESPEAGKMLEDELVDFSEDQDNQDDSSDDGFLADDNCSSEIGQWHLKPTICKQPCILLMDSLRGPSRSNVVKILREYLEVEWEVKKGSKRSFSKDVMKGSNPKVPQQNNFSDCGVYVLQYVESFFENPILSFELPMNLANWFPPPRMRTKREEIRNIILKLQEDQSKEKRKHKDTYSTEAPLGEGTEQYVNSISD

[5] = biological target: T4, Sentrin-specific protease 6; assay: SAR Analysis of small molecule inhibitors of Sentrin-specific protease 6 (SENP6) using a Luminescent assay. [Related pubchem assays (depositor defined):AID2582, AID2599]; assay type: functional
Caspase-3 [6] = biological target: T2, Caspase-3; assay: SAR Analysis of small molecule inhibitors of Sentrin-specific proteases (SENPs) using a Caspase-3 Selectivity assay. [Related pubchem assays (depositor defined):AID2540, AID2599, AID434973, AID489001]; assay type: functional
[7] = biological target: T3, Sentrin-specific protease 7; assay: SENP7 protease inhibitors, SAR follow-up, biochemical, luminescence (AID 504497); assay type: functional
[8] = biological target: T1, Sentrin-specific protease 8; assay: SENP8 protease inhibitors, SAR follow-up, biochemical, luminescence (AID 504501); assay type: functional
[9] = biological target: T1, Sentrin-specific protease 8; assay type: functional
Caspase-3 [10] = biological target: T2, Caspase-3; assay type: functional
[11] = biological target: T3, Sentrin-specific protease 7; assay type: functional
[12] = biological target: T4, Sentrin-specific protease 6; assay type: functional
[13] = inhibitors of intracellular T. cruzi replication, confirmation, NIH3T3 host cells, beta-gal luminescence (AID 2044); assay type: functional, cell-based;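 note: intracellular parasites grown in NIH/3T3 mouse fibroblasts as host cells; luminescent beta-galactosidase reporter signal from transgenic T. cruzi replicating inside host cells; inhibitors lower the luminescence signal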
[14] = cytotoxicity toward NIH3T3 fibroblasts, dose response, counter-screen, cell-based, ATP luminescence, mouse fibroblasts (AID 2010); assay type: functional;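 note: cells exposed to compound for about 90 hours before reading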
P388/ADR = assay: cells; assay type: functional; settings: Mus musculus
SN12K1 = assay: cells; assay type: functional; settings: Homo sapiens
P388 = assay: cells; assay type: functional; settings: Mus musculus
[15] = biological target: T5, Apoptotic protease-activating factor 1 (Homo sapiens, UniProt O14727); assay: SAR analysis of small molecule Activators of Apaf-1 in a Fluorescent assay.; assay type: functional; settings: read-out: EC50_Mean;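 note: caspase-3 cleavage of fluorogenic Rh110 DEVD substrate downstream of apoptosome activation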
T5 sequence (O14727 whole entry): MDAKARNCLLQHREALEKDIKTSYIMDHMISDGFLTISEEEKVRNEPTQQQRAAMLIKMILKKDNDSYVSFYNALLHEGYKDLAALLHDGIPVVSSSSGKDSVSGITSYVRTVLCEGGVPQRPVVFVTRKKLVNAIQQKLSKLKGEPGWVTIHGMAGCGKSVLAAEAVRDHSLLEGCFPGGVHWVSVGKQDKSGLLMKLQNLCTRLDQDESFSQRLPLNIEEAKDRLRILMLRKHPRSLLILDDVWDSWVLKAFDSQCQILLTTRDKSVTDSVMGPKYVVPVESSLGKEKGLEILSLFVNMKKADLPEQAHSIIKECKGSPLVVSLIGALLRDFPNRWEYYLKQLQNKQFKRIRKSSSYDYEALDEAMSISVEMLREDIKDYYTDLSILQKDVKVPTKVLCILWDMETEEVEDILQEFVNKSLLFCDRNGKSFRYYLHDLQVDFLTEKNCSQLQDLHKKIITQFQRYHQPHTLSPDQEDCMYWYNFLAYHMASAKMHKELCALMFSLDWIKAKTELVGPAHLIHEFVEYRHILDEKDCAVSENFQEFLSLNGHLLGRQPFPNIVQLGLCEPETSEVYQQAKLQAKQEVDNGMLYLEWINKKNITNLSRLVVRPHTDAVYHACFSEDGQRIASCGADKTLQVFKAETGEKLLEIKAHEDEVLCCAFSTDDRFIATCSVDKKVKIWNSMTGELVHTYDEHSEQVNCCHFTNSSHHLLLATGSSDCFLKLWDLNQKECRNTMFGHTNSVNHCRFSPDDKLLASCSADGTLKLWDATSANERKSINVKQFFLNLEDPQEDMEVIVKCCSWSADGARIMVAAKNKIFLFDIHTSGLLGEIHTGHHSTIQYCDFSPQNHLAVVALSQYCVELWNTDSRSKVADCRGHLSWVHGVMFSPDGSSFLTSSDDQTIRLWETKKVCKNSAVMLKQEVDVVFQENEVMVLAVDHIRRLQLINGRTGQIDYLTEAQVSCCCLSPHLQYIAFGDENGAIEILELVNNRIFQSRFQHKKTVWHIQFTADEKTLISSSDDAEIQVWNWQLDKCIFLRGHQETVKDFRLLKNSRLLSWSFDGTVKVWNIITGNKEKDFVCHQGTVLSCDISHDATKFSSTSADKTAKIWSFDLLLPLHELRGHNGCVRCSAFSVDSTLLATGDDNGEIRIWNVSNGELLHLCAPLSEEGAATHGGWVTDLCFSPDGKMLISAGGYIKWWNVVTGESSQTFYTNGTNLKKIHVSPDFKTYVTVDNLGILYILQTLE

Aurora kinase B = Aurora kinase B (Homo sapiens, UniProt Q96GD4); assay type: functional
Aurora kinase A = Aurora kinase A (Homo sapiens, UniProt O14965); assay type: functional;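 note: value from the Navigating the Kinome kinase panel profiling, panel entry STK6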
Chain of Aurora kinase A (O14965 whole entry): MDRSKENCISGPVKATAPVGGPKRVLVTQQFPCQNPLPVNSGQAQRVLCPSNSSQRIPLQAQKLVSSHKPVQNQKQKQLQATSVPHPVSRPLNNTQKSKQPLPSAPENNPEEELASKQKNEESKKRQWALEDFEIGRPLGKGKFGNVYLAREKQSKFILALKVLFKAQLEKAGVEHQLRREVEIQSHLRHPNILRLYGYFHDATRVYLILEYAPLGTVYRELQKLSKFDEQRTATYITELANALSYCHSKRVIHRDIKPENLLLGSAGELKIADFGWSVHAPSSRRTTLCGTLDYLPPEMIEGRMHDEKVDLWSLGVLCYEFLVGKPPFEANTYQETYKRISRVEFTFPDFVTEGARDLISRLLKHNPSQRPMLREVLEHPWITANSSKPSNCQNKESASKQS

Chain of Aurora kinase B (Q96GD4 whole entry): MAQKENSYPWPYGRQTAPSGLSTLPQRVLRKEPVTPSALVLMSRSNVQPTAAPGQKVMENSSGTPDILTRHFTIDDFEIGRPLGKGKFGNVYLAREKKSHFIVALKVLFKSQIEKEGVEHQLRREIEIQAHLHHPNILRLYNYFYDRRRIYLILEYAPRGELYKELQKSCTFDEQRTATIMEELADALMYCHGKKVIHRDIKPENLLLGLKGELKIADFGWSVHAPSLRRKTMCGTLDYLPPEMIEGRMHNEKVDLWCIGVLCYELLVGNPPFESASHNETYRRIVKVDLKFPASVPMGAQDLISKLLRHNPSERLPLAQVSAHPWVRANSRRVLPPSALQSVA

Compound: Cc1ccc(N2CC(NC(=O)C(=O)c3c(C)[nH]c4ccccc34)CC2=O)cc1 (stereo unspecified)
IC50 [1]: > 99 µM (inactive)
IC50 (Caspase-3 [2]): > 99 µM (inactive)
IC50 [3]: > 99 µM (inactive)
IC50 [4]: > 99 µM (inactive)

Compound: O=C(Nc1nc2ccc(Cl)cc2s1)C1CC1
IC50 [1]: 5.97 µM (active)
IC50 (Caspase-3 [2]): 28.9 µM (active)
IC50 [5]: > 99 µM (inactive)
IC50 (Caspase-3 [6]): 25 µM (active)
IC50 [3]: 7.46 µM (active)
EC50 [13]: 0.119 µM (active)
IC50 [7]: 5.9 µM (active)
IC50 [4]: 24.6 µM (active)
EC50 [14]: > 16 µM (not active)
IC50 [8]: > 99 µM (inactive)

Compound: CC(C)(C)c1ccc(C(=O)NC(CCc2ccccc2)CC(=O)O)cc1 (stereo unspecified)
EC50 [15]: > 100 µM (inactive)

Compound: COC(=O)C[C@](O)(CCC(C)(C)O)C(=O)O[C@@H]1C(OC)=C[C@]23CCCN2CCc2cc4c(cc2[C@H]13)OCO4 [HARRINGTONINE]
GI50 (P388/ADR): 0.738 µM (active)
GI50 (SN12K1): 0.0661 µM (active)
GI50 (P388): 0.0252 µM (active)

Compound: COCCOC1CCC(n2nc(-c3ccc(Nc4nc5cc(Br)cc(C)c5o4)cc3)c3c(N)ncnc32)CC1 (stereo unspecified)
Ki (Aurora kinase B): 0.00316 µM (active)
Ki (Aurora kinase A): 0.00398 µM (active)

More lines, main results first:

IC50 [5]: 0.742 µM (active)
IC50 (Caspase-3 [6]): 0.541 µM (active)
IC50 [7]: 0.854 µM (active)
Compound: CCCCc1ccc2nc(NC(=O)c3sccc3C)sc2c1
IC50 [8]: 0.672 µM (active)

IC50 (Caspase-3 [10]): 21.5 µM (active)
IC50 [11]: 19.4 µM (active)
IC50 [12]: 44.8 µM (active)
Compound: Cc1nn2cc(-c3ncc(C(F)(F)F)cc3Cl)cnc2c1Br
IC50 [9]: 36.9 µM (active)

GI50 (P388/ADR): > 100 µM (inactive)
GI50 (P388): > 100 µM (inactive)
Compound: COC1OCC(O)C(NC(=O)N(C)N=O)C1O (stereo unspecified)
GI50 (SN12K1): > 100 µM (inactive)
